From US20190388406A1, “METHODS OF PREVENTION AND TREATMENT OF THROMBOSIS” (Portola Pharmaceuticals, Inc., priority 2018, published 2019)

Columns and labels:
[1] = system: critically ill patients admitted to the intensive care unit (ICU); assay: Occurrence of VTE in critically ill (ICU) patients, post hoc analysis of randomized trial; assay type: in vivo, human
Text: (§1) A multi-center, double-blind, randomized controlled trial enrolled 7,513 patients hospitalized for an acute medical illness with the following eligibility criteria: (1) hospitalization for acute medical illness, including heart failure, respiratory failure, infection, ischemic stroke, or rheumatic disorder; (2) age≥75 years, age 60 to 74 years with D-dimer≥2×the upper limit of normal (ULN), or age 40 to 59 years with D-dimer≥2×ULN and history of VTE or cancer; (3) anticipated severe immobilization for ≥24 hours followed by moderate or severe immobilization for 3 or more days; and (4) anticipated hospitalization for 3 or more days. Patients were randomly allocated in a 1:1 ratio to extended-duration betrixaban (35 to 42 days) or standard-duration enoxaparin (10±4 days).
(§2) The present study is a post hoc analysis of the effect of betrixaban in critically ill patients admitted to the intensive care unit (ICU) during the index hospitalization and received extended-duration betrixaban. The study population included in the present analysis was subjects admitted to the ICU during the index hospitalization event.
(§3) The primary efficacy endpoint was the occurrence of VTE, defined as a composite of asymptomatic proximal DVT, symptomatic DVT, non-fatal pulmonary embolism (PE), or VTE-related mortality. Safety endpoints were the occurrence of major bleeding and clinically relevant non-major bleeding, defined according to the International Society on Thrombosis and Haemostasis (ISTH) criteria. (Schulman S, Kearon C, Subcommittee on Control of Anticoagulation of the S, Standardization Committee of the International Society on T, Haemostasis. Definition of major bleeding in clinical investigations of antihemostatic medicinal products in non-surgical patients. J Thromb Haemost. 2005; 3:692-694; and Kaatz S, Ahmad D, Spyropoulos AC, Schulman S, Subcommittee on Control of A. Definition of clinically relevant non-major bleeding in studies of anticoagulants in atrial fibrillation and venous thromboembolic disease in non-surgical patients: communication from the SSC of the ISTH. J Thromb Haemost. 2015; 13:2119-2126.) All events were adjudicated by an independent clinical events committee blinded to thromboprophylaxis allocation.
(§4) Baseline characteristics of study participants were compared between treatment arms using the chi-squared test for categorical variables and one-way analysis of variance (ANOVA) for continuous variables, respectively. We analyzed efficacy using a modified intention-to-treat (mITT) population, which included subjects who received at least one dose of study medication and had data on one or more of the efficacy components. The bleeding risk of thromboprophylaxis was analyzed with the actual regimen received in the safety population, which included all randomized patients who received at least one dose of study medication. […] Absolute risk difference and relative risk of betrixaban vs. enoxaparin group were calculated and compared using the chi-squared test. The Breslow-Day test of homogeneity was performed to assess the effect modification by ICU admission on the thromboprophylaxis. All analyses were performed using two-sided tests at a significance level of 0.05 with SAS software version 9.4 (SAS Institute, Inc., North Carolina, United States).

[2] = system: critically ill patients admitted to the intensive care unit (ICU); assay: Occurrence of major bleeding (ISTH) in critically ill (ICU) patients; assay type: in vivo
Text: as §1, §2, §3, §4

[3] = system: non-critically ill patients; assay: Occurrence of major bleeding in non-critically ill patients; assay type: in vivo
Text: as §1, with “Patients were randomly allocated in a 1:1 ratio to extended-duration betrixaban (35 to 42 days) or standard-duration enoxaparin (10±4 days).” left out
as §4, with “The Breslow-Day test of homogeneity was performed to assess the effect modification by ICU admission on the thromboprophylaxis. All analyses were performed using two-sided tests at a significance level of 0.05 with SAS software version 9.4 (SAS Institute, Inc., North Carolina, United States).” left out

[4] = Exposure of betrixaban on co-administration with a Pgp inhibitor; assay type: in vivo; conditions: concomitant Pgp inhibitor
[5] = system: critically ill patients admitted to the intensive care unit (ICU); assay: Occurrence of major or clinically relevant non-major bleeding (ISTH) in critically ill (ICU) patients; assay type: in vivo
Text: as §1, §2, §3, §4

[6] = system: non-critically ill patients; assay: Occurrence of VTE in non-critically ill patients; assay type: in vivo, human
Text: as §1, with “Patients were randomly allocated in a 1:1 ratio to extended-duration betrixaban (35 to 42 days) or standard-duration enoxaparin (10±4 days).” left out
as §4, with “The Breslow-Day test of homogeneity was performed to assess the effect modification by ICU admission on the thromboprophylaxis. All analyses were performed using two-sided tests at a significance level of 0.05 with SAS software version 9.4 (SAS Institute, Inc., North Carolina, United States).” left out

[7] = full-dose stratum (betrixaban 80 mg daily vs. enoxaparin 40 mg daily), end of study through 77 days
[8] = full-dose stratum (betrixaban 80 mg daily vs. enoxaparin 40 mg daily), end of study through 77 days, listed as betrixaban
[9] = full-dose stratum (betrixaban 80 mg daily vs. enoxaparin 40 mg daily), through 42 days
[10] = full-dose stratum, through 42 days
[11] = full-dose stratum, through 77 days
[12] = mITT population, end of extended thromboprophylaxis through 42 days
[13] = mITT population, end of study through 77 days
[14] = mITT population, through 42 days
[15] = mITT population, through 77 days
[16] = full-dose stratum (betrixaban 80 mg daily vs. enoxaparin 40 mg daily), through 7 days after discontinuation
[17] = full-dose stratum (betrixaban 80 mg daily vs. enoxaparin 40 mg daily), through 7 days after discontinuation, listed as betrixaban
[18] = full-dose stratum, through 7 days after discontinuation
[19] = safety population, end of study through 77 days
[20] = safety population, end of study through 77 days, listed as betrixaban
[21] = safety population, through 7 days after discontinuation
[22] = safety population, through 7 days after discontinuation of study medication
[23] = safety population, through 7 days after discontinuation of study medication, listed as betrixaban
[24] = safety population, through 77 days

With `COc1ccc(NC(=O)c2ccc(C(=N)N(C)C)cc2)c(C(=O)Nc2ccc(Cl)cn2)c1` [Betrixaban, N-(5-chloropyridin-2-yl)-2-(4-(N,N-dimethylcarbamimidoyl)benzamido)-5-methoxybenzamide] the “reduction of the risk of VTE compared with enoxaparin” value ([1]; critically ill patients, end of extended thromboprophylaxis through 42 days) was 46%, the “relative risk reduction of VTE compared with enoxaparin” value ([1]; critically ill patients, end of study through 77 days) was 52% and the “risk reduction in the VTE components (asymptomatic proximal DVT, symptomatic DVT, non-fatal PE, VTE-related death)” value ([1]; critically ill patients, vs. enoxaparin) was “did not reach statistical difference”. The “VTE events / patients (n/N)” value [1, 7] was 9/214, the “risk of VTE (rate)” value [1, 7] was “(4.21%)” and the “risk of VTE (rate)” value [1, 8] was 4.21%. For the same molecule, the “VTE events / patients (n/N)” value [1, 9] was 9/271, the “risk of VTE (rate)” value [1, 9] was “(3.32%)” and the “risk of VTE (rate)” value ([1]; full-dose stratum (betrixaban 80 mg daily vs. enoxaparin 40 mg daily), through 42 days, listed as betrixaban) was 3.32%. For the same molecule, the “VTE ARD (absolute risk difference) betrixaban vs. enoxaparin” value [1, 10] was −5.01%, the “VTE NNT or NNH” value [1, 10] was 20 and the “VTE RR (relative risk) betrixaban vs. enoxaparin” value [1, 10] was 0.40. For the same molecule, the “VTE ARD (absolute risk difference) betrixaban vs. enoxaparin” value [1, 11] was −7.20%, the “VTE NNT or NNH” value [1, 11] was 14 and the “VTE RR (relative risk) betrixaban vs. enoxaparin” value [1, 11] was 0.37. For the same molecule, the “VTE events / patients (n/N)” value [1, 12] was 15/351, the “risk of VTE (rate)” value [1, 12] was “(4.27%)” and the “risk of VTE (rate)” value ([1]; mITT population, end of extended thromboprophylaxis through 42 days, listed as betrixaban) was 4.27%. The “VTE events / patients (n/N)” value [1, 13] was 15/286, the “risk of VTE (rate)” value [1, 13] was “(5.24%)” and the “risk of VTE (rate)” value ([1]; mITT population, end of study through 77 days, listed as betrixaban) was 5.24%. For the same molecule, the “VTE ARD (absolute risk difference) betrixaban vs. enoxaparin” value [1, 14] was −3.68%, the “VTE NNT or NNH” value [1, 14] was 28 and the “VTE RR (relative risk) betrixaban vs. enoxaparin” value [1, 14] was 0.54. For the same molecule, the “VTE ARD (absolute risk difference) betrixaban vs. enoxaparin” value [1, 15] was −5.63%, the “VTE NNT or NNH” value [1, 15] was 18 and the “VTE RR (relative risk) betrixaban vs. enoxaparin” value [1, 15] was 0.48. For the same molecule, the “major bleeding events / patients (n/N)” value [2, 7] was 1/271, the “risk of major bleeding (rate)” value [2, 7] was “(0.37%)” and the “risk of major bleeding (rate)” value [2, 8] was 0.37%. The “major bleeding events / patients (n/N)” value [2, 16] was 0/271, the “risk of major bleeding (rate)” value [2, 16] was “(0.00%)” and the “risk of major bleeding (rate)” value [2, 17] was 0.00%. For the same molecule, the “major bleeding ARD betrixaban vs. enoxaparin” value [2, 18] was −3.26%, the “major bleeding NNT or NNH” value [2, 18] was 31 and the “major bleeding ARD betrixaban vs. enoxaparin” value [2, 11] was −3.25%. For the same molecule, the “major bleeding NNT or NNH” value [2, 11] was 31, the “major bleeding RR betrixaban vs. enoxaparin” value [2, 11] was 0.10 and the “major bleeding events / patients (n/N)” value [2, 19] was 5/351. For the same molecule, the “risk of major bleeding (rate)” value [2, 19] was “(1.42%)”, the “risk of major bleeding (rate)” value [2, 20] was 1.42% and the “major bleeding ARD betrixaban vs. enoxaparin” value [2, 21] was −1.99%. The “major bleeding RR betrixaban vs. enoxaparin” value [2, 21] was 0.36, the “major bleeding events / patients (n/N)” value [2, 22] was 4/351 and the “risk of major bleeding (rate)” value [2, 22] was “(1.14%)”. The “risk of major bleeding (rate)” value [2, 23] was 1.14%, the “major bleeding ARD betrixaban vs. enoxaparin” value [2, 24] was −1.98% and the “major bleeding RR betrixaban vs. enoxaparin” value [2, 24] was 0.42. For the same molecule, the “rates of major bleeding, betrixaban vs. enoxaparin” value [3] was “no difference”, the “effect of Pgp inhibitor on exposure of betrixaban” value [4] was “increases the exposure” and the “major or clinically relevant non-major bleeding events / patients (n/N)” value [5, 7] was 11/271. For the same molecule, the “risk of major or clinically relevant non-major bleeding (rate)” value [5, 7] was “(4.06%)”, the “risk of major or clinically relevant non-major bleeding (rate)” value [5, 8] was 4.06% and the “major or clinically relevant non-major bleeding events / patients (n/N)” value [5, 16] was 9/271. For the same molecule, the “risk of major or clinically relevant non-major bleeding (rate)” value [5, 16] was “(3.32%)”, the “risk of major or clinically relevant non-major bleeding (rate)” value [5, 17] was 3.32% and the “major or clinically relevant non-major bleeding ARD betrixaban vs. enoxaparin” value [5, 18] was −0.30%. The “major or clinically relevant non-major bleeding RR betrixaban vs. enoxaparin” value [5, 18] was 0.92, the “major or clinically relevant non-major bleeding ARD betrixaban vs. enoxaparin” value [5, 11] was 0.07% and the “major or clinically relevant non-major bleeding RR betrixaban vs. enoxaparin” value [5, 11] was 1.02. For the same molecule, the “major or clinically relevant non-major bleeding events / patients (n/N)” value [5, 19] was 15/351, the “risk of major or clinically relevant non-major bleeding (rate)” value [5, 19] was “(4.27%)” and the “risk of major or clinically relevant non-major bleeding (rate)” value [5, 20] was 4.27%. The “major or clinically relevant non-major bleeding ARD betrixaban vs. enoxaparin” value [5, 21] was 0.29%, the “major or clinically relevant non-major bleeding RR betrixaban vs. enoxaparin” value [5, 21] was 1.09 and the “major or clinically relevant non-major bleeding events / patients (n/N)” value [5, 22] was 13/351. For the same molecule, the “risk of major or clinically relevant non-major bleeding (rate)” value [5, 22] was “(3.70%)”, the “risk of major or clinically relevant non-major bleeding (rate)” value [5, 23] was 3.70% and the “major or clinically relevant non-major bleeding ARD betrixaban vs. enoxaparin” value [5, 24] was 0.58%. For the same molecule, the “major or clinically relevant non-major bleeding RR betrixaban vs. enoxaparin” value [5, 24] was 1.16, the “reduction of VTE risk” value ([6]; end of extended thromboprophylaxis) was 23% and the “reduction of VTE risk” value ([6]; end of study) was 24%.

In the case of Enoxaparin [reference compound], the “VTE events / patients (n/N)” value [1, 7] is reported as 26/228, the “risk of VTE (rate)” value [1, 7] is reported as “(11.40%)” and the “risk of VTE (rate)” value ([1]; full-dose stratum (betrixaban 80 mg daily vs. enoxaparin 40 mg daily), end of study through 77 days, listed as enoxaparin) is reported as 11.40%. For the same molecule, the “VTE events / patients (n/N)” value [1, 9] was 23/276, the “risk of VTE (rate)” value [1, 9] was “(8.33%)” and the “risk of VTE (rate)” value ([1]; full-dose stratum (betrixaban 80 mg daily vs. enoxaparin 40 mg daily), through 42 days, listed as enoxaparin) was 8.33%. The “VTE events / patients (n/N)” value [1, 12] was 28/352, the “risk of VTE (rate)” value [1, 12] was “(7.95%)” and the “risk of VTE (rate)” value ([1]; mITT population, end of extended thromboprophylaxis through 42 days, listed as enoxaparin) was 7.95%. The “VTE events / patients (n/N)” value [1, 13] was 31/285, the “risk of VTE (rate)” value [1, 13] was “(10.88%)” and the “risk of VTE (rate)” value ([1]; mITT population, end of study through 77 days, listed as enoxaparin) was 10.88%.
